Assay results from US10179143B2, “Anti-viral azide containing compounds” (LIFE TECHNOLOGIES CORPORATION, priority 2010, dated 2019).

How the values were obtained:
[1] = test system: Nuclear-GFP BacMam 2.0 Virus; assay: Infectivity of PTM analog-labeled Nuclear-GFP BacMam 2.0 virus in U2-OS cells (nuclear-GFP expression); format: cell-based, baculovirus; conditions: BacMam virus labeled in Sf9 insect cells with 50 μM analog for 4 days; 20 or 50 uL virus on U2-OS cells overnight; FIG. 5
Source text: Inhibition of insect cell baculovirus infectivity with azido fatty acid analogs: The BacMam system uses a modified insect cell virus (baculovirus) as a vehicle to efficiently deliver and express genes in mammalian cells. A Nuclear-GFP BacMam 2.0 expression system (Invitrogen, C10602) was used as a model to determine if PTM analog labeling of the virus would affect mammalian cell infectivity. Viruses were labeled with various PTM analogs and used to infect mammalian cells. Infectivity was determined by the expression of nuclear-GFP, as viral entry into the cell is required for expression of GFP protein. […]
Characterization of BacMam virus production: To verify, quantitate, and normalize the amount of enriched viruses obtained from insect cell supernatants, samples of each virus were lysed in SDS sample preparation buffer (SPB), sonicated with a probe tip sonicator, and heated at 90C to completely dissolve the viral proteins. Viral protein concentrations of the lysates were then determined. […]
Mammalian cell infection protocol: To determine if the PTM analog-labeled viruses retain the ability to infect mammalian cells, 50,000 U2-OS cells (human osteosarcoma cell line) were plated onto a 6 well-chamber glass bottom plate. […] The following day cells were imaged on AMG EVOS fluorescence microscope at 10× or 20× magnification using both white light and GFP filters (FIG. 5). […]

HIV = assay: Luciferase reporter assay of infectivity of azide-labeled HIV on TZM/BI reporter cells; format: cell-based, HIVNL4-3; conditions: virus produced in CEMx174 cells spiked with the compound (fatty acids 50-100 μM, sugars 20-40 μM); normalized to p24; 12 hours on TZM/BI; single cycle replication system; FIGS. 3 and 4
Procedure: CEMx174 cells were transfected with HIVNL4-3 in a T-150 flask and the virus production was monitored by reverse transcriptase activity until peak virus production occurred (usually 7 to 9 days post transfection). Prior to transfection, the CEMx174 cells were spiked with the following azide-modified biomolecules: 15-azidopentadecanoic acid (50-100 μM), 12-azidododecanoic acid (50-100 μM), tetraacetylated N-azidoacetylgalactosamine (20-40 μM), and tetraacetylated N-azidoacetyl-D-mannosamine (20-40 μM).
Labeled virus was also obtained from the transfected cells. More specifically, virus-containing supernatants were collected and virus was purified through 20% sucrose as previously described (Graham, D.R. et al., Proteomics 2008, 8:4919-30). The purified virus was then mixed with the CLICK-IT® detection reagent, tetramethylrhodamine (TAMRA) alkyne and the CLICK-IT® Protein Reaction Buffer Kit (Invitrogen, Carlsbad, Calif.). Virus samples were run on a one-dimensional gel to reveal azide-labeled viral proteins (FIG. 2). […]
To examine the effect of the azide-modified biomolecules on the innate biology of the virus, the azide-labeled virus from the transfected cells was isolated and tested in cell infection studies. […] Viral infectivity was determined by measuring cellular luciferase activities with two different luciferase reagents.

`[N-]=[N+]=NCCCCCCCCCCCCCCC(=O)O` [15-azidopentadecanoic acid] was tested, and the “nuclear-GFP expression in U2-OS cells (viral entry)” value [1] was “no nuclear-GFP expression”.
In the case of `[N-]=[N+]=NCCCCCCCCCCCC(=O)O` [12-azidododecanoic acid], the “nuclear-GFP expression in U2-OS cells (viral entry)” value [1] is reported as “no nuclear-GFP expression” and the “impact on the infectivity of the virus (cellular luciferase activities)” value (HIV) is reported as “profound impact on the infectivity of the virus”.
